Results on nine compounds are retold here after ChEMBL document CHEMBL3046324, “Molecular recognition of long chain fatty acids by peroxisome proliferator-activated receptor” (Med Chem Res, 2009).

Each structure is given as a SMILES string. Some results are limits rather than exact numbers.

For one assay, the target named is T1, Peroxisome proliferator-activated receptor alpha (Homo sapiens, UniProt Q07869).
T1 sequence (Q07869 whole entry): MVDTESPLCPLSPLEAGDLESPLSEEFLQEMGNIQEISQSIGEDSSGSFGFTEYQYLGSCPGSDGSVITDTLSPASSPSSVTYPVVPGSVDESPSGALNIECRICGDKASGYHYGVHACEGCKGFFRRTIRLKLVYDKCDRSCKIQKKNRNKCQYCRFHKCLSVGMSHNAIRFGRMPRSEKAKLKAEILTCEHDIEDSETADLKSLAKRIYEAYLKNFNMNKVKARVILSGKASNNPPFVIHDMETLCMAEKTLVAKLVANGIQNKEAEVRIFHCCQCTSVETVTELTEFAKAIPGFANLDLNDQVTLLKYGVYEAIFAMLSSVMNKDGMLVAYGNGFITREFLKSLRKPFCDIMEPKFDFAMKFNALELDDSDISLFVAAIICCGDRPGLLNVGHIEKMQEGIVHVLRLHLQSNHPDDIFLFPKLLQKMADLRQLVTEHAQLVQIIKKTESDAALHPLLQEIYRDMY
Description: Binding affinity to PPAR-alpha (unknown origin) by fluorescence-based assay.
The Kd is the concentration at which binding is half-saturated. In turn, `CCCCC/C=C\C/C=C\CCCCCCCC(=O)O` [LINOLEIC ACID] displayed a Kd of 4.8 nM.

On to `CC/C=C\C/C=C\C/C=C\CCCCCCCC(=O)O` [LINOLENIC ACID], for which the Kd amounted to 7.9 nM.

The next assay deals with T1, Peroxisome proliferator-activated receptor alpha. As to the kind of experiment: Inhibition of PPAR-alpha (unknown origin) by SPA assay.
As a reminder, the IC50 is the point on the concentration scale where inhibition reaches its midpoint. A higher IC50 goes with lower potency. `CCCCC/C=C\C/C=C\C/C=C\C/C=C\CCCC(=O)O` [ARACHIDONIC ACID] came in with an IC50 of 1200 nM.

In turn, `CCCCC/C=C\C/C=C\C/C=C\CCCCCCC(=O)O` [DIHOMO-GAMMA-LINOLENIC ACID] showed an IC50 of 1400 nM.

The compound `CCCCCCCC/C=C\CCCCCCCCCCCC(=O)O` [ERUCIC ACID] registered an IC50 greater than 30000 nM.

The compound `CCCCC/C=C\C/C=C\C/C=C\CCCCC(=O)O` [GAMOLENIC ACID] had an IC50 of 270 nM.

For the compound `CC/C=C\C/C=C\C/C=C\C/C=C\C/C=C\CCCC(=O)O` [ICOSAPENT], inhibition was half-maximal at 1100 nM (IC50).

`CCCCC/C=C\C/C=C\CCCCCCCC(=O)O` [LINOLEIC ACID] displayed an IC50 of 1100 nM.

On to `CC/C=C\C/C=C\C/C=C\CCCCCCCC(=O)O` [LINOLENIC ACID], for which the IC50 turned out to be 1200 nM.

For the compound `CCCCCCCC/C=C\CCCCCCCC(=O)O` [OLEIC ACID], the IC50 worked out at 600 nM.

Regarding `CCCCCC/C=C\CCCCCCCC(=O)O` [PALMITOLEIC ACID], inhibition was half-maximal at 1700 nM (IC50).
